In patent US9994535B2, “Desferrithiocin polyether analogues” (University of Florida Research Foundation, Inc., priority 2005, dated 2018):

Columns and labels:
[1] = Tissue and plasma concentrations upon subcutaneous administration to rats; format: in vivo; settings: rat, sc 300 μmol/kg
Description: Tissue Distribution of a Polyether-Substituted (S)-4′-Hydroxydesazadesferrithiocin Analogue [(S)-4′-(HO)-DADFT-PE] Upon Subcutaneous Administration to Rats
A measurement was made assessing (S)-4′-(HO)-DADFT-PE and (S)-4′-(HO)-DADFT tissue and plasma concentrations upon subcutaneous administration at times from 2-8 h post dosing. The rats were given this compound subcutaneously at 300 μmol/kg. The tissue and plasma level were obtained as described in Bergeron et al. J Med Chem. 48:821-831 (2005), the entire contents of which are incorporated herein by reference.

[2] = Iron clearing efficiency in non-iron overloaded, bile duct cannulated rat model; format: in vivo; settings: for Efficiency (%) (iron clearing efficiency): 300 μmol/kg, 24 hour iron excretion, 2:1 ligand-iron complex; for Iron clearing efficiency compared with parent drug (S)-4-(HO)-DADFT: same micromole per kilogram dose
Description: Iron Clearing Efficiency of Iron Chelators in a Non-Iron Overloaded, Bile Duct Cannulated Rat Model
Studies were performed in the non-iron overloaded, bile duct cannulated rodent model with the compounds shown below.
Briefly, male Sprague-Dawley rats averaging 450 g were housed in Nalgene plastic metabolic cages during the experimental period and given free access to water. The animals were anesthetized using sodium pentobarbital (55 mg/kg) administered intraperitoneally. The bile duct was cannulated using 22-gauge polyethylene tubing. The cannula was inserted into the duct about 1 cm from the duodenum and tied snugly in place. After threading through the shoulder, the cannula was passed from the rat to the swivel inside a metal torque-transmitting tether, which was attached to a rodent jacket around the animal's chest. The cannula was directed from the rat to a Gilson microfraction collector (Middleton, Wis.) by a fluid swivel mounted above the metabolic cage. Three hour bile samples were continuously collected for a minimum of 24 hours up to 48 hours. However, the efficiency calculations are based on the 24 hour iron excretion. The efficiency of each chelator was calculated on the basis of a 2:1 ligand-iron complex. The efficiencies in the rodent model were calculated by subtracting the iron excretion of control animals from the iron excretion of treated animals. This number was then divided by the theoretical output; the result is expressed as a percentage (Bergeron, R. J., et al., J. Med Chem. 42:95-108 (1999) the entire contents of which are incorporated herein by reference). The urine sample was taken at 24 hours and handled as previously described in Bergeron, R. J., et al., J. Med. Chem. 34:2072-2078 (1991), the entire contents of which are incorporated herein by reference.

COc1ccc(C2=N[C@@](C)(C(=O)O)CS2)c(O)c1 [(S)-4′-(CH3O)-DADFT]
Brain concentration of administered compound ([1]; 2 h): 13.2 ± 4.8 nmol/g wet wt | Brain concentration of metabolite of administered compound ([1]; 2 h): <2.4 nmol/g wet wt | Brain concentration of administered compound ([1]; 4 h): 7.4 ± 0.7 nmol/g wet wt | Brain concentration of metabolite of administered compound ([1]; 4 h): <2.4 nmol/g wet wt | Brain concentration of administered compound ([1]; 6 h): 4.8 ± 3.1 nmol/g wet wt | Brain concentration of metabolite of administered compound ([1]; 6 h): <2.4 nmol/g wet wt | Brain concentration of administered compound ([1]; 8 h): <1.6 ± 0.0 nmol/g wet wt | Brain concentration of metabolite of administered compound ([1]; 8 h): <2.4 nmol/g wet wt | Heart concentration of administered compound ([1]; 2 h): 66.2 ± 2.2 nmol/g wet wt | Heart concentration of metabolite of administered compound ([1]; 2 h): 6.4 ± 0.6 nmol/g wet wt | Heart concentration of administered compound ([1]; 4 h): 32.6 ± 3.6 nmol/g wet wt | Heart concentration of metabolite of administered compound ([1]; 4 h): <4.8 nmol/g wet wt | Heart concentration of administered compound ([1]; 6 h): 28.2 ± 0.7 nmol/g wet wt | Heart concentration of metabolite of administered compound ([1]; 6 h): <4.8 nmol/g wet wt | Heart concentration of administered compound ([1]; 8 h): 26.3 ± 9.7 nmol/g wet wt | Heart concentration of metabolite of administered compound ([1]; 8 h): <4.8 nmol/g wet wt | Kidney concentration of administered compound ([1]; 2 h): 97.5 ± 24.5 nmol/g wet wt | Kidney concentration of metabolite of administered compound ([1]; 2 h): 49.9 ± 21.3 nmol/g wet wt | Kidney concentration of administered compound ([1]; 4 h): 57.0 ± 15.5 nmol/g wet wt | Kidney concentration of metabolite of administered compound ([1]; 4 h): 23.2 ± 1.7 nmol/g wet wt | Kidney concentration of administered compound ([1]; 6 h): 67.2 ± 9.9 nmol/g wet wt | Kidney concentration of metabolite of administered compound ([1]; 6 h): 21.7 ± 6.2 nmol/g wet wt | Kidney concentration of administered compound ([1]; 8 h): 67.4 ± 19.9 nmol/g wet wt | Kidney concentration of metabolite of administered compound ([1]; 8 h): 25.3 ± 2.5 nmol/g wet wt | Liver concentration of administered compound ([1]; 2 h): 111.0 ± 14.0 nmol/g wet wt | Liver concentration of metabolite of administered compound ([1]; 2 h): 43.5 ± 4.5 nmol/g wet wt | Liver concentration of administered compound ([1]; 4 h): 73.8 ± 10.8 nmol/g wet wt | Liver concentration of metabolite of administered compound ([1]; 4 h): 24.6 ± 1.1 nmol/g wet wt | Liver concentration of administered compound ([1]; 6 h): 80.9 ± 10.7 nmol/g wet wt | Liver concentration of metabolite of administered compound ([1]; 6 h): 26.9 ± 5.1 nmol/g wet wt | Liver concentration of administered compound ([1]; 8 h): 81.4 ± 15.9 nmol/g wet wt | Liver concentration of metabolite of administered compound ([1]; 8 h): 25.0 ± 3.6 nmol/g wet wt | Pancreas concentration of administered compound ([1]; 2 h): 37.1 ± 3.8 nmol/g wet wt | Pancreas concentration of metabolite of administered compound ([1]; 2 h): 1.3 ± 2.2 nmol/g wet wt | Pancreas concentration of administered compound ([1]; 4 h): 19.4 ± 1.4 nmol/g wet wt | Pancreas concentration of metabolite of administered compound ([1]; 4 h): 0.0 ± 0.0 nmol/g wet wt | Pancreas concentration of administered compound ([1]; 6 h): 16.5 ± 4.5 nmol/g wet wt | Pancreas concentration of metabolite of administered compound ([1]; 6 h): 0.0 ± 0.0 nmol/g wet wt | Pancreas concentration of administered compound ([1]; 8 h): 9.7 ± 0.7 nmol/g wet wt | Pancreas concentration of metabolite of administered compound ([1]; 8 h): 0.0 ± 0.0 nmol/g wet wt | Plasma concentration of administered compound ([1]; plasma, 2 h): 478.8 ± 36.8 µM | Plasma concentration of metabolite of administered compound ([1]; plasma, 2 h): 8.4 ± 1.8 µM | Plasma concentration of administered compound ([1]; plasma, 4 h): 236.3 ± 42.0 µM | Plasma concentration of metabolite of administered compound ([1]; plasma, 4 h): 4.2 ± 1.0 µM | Plasma concentration of administered compound ([1]; plasma, 6 h): 142.5 ± 29.5 µM | Plasma concentration of metabolite of administered compound ([1]; plasma, 6 h): 1.8 ± 0.6 µM | Plasma concentration of administered compound ([1]; plasma, 8 h): 79.6 ± 13.3 µM | Plasma concentration of metabolite of administered compound ([1]; plasma, 8 h): 0.0 ± 0.0 µM | Efficiency (%) (iron clearing efficiency) ([2]; p.o.): 6.6 ± 2.8%

C[C@]1(C(=O)O)CSC(c2ccc(O)cc2O)=N1 [(S)-4′-(HO)-DADFT, (S)-2-(2,4-dihydroxyphenyl)-4,5-dihydro-4-methyl-4-thiazolecarboxylic acid]
Brain concentration of administered compound ([1]; 2 h): 0 ± 0 nmol/g wet wt | Brain concentration of administered compound ([1]; 4 h): 0 ± 0 nmol/g wet wt | Brain concentration of administered compound ([1]; 6 h): 0 ± 0 nmol/g wet wt | Brain concentration of administered compound ([1]; 8 h): 0 ± 0 nmol/g wet wt | Heart concentration of administered compound ([1]; 2 h): 4.6 ± 3^ nmol/g wet wt | Heart concentration of administered compound ([1]; 4 h): 0 ± 0 nmol/g wet wt | Heart concentration of administered compound ([1]; 6 h): 0 ± 0 nmol/g wet wt | Heart concentration of administered compound ([1]; 8 h): 0 ± 0 nmol/g wet wt | Kidney concentration of administered compound ([1]; 2 h): 97.1 ± .50 nmol/g wet wt | Kidney concentration of administered compound ([1]; 4 h): 26.6 ± 7.1 nmol/g wet wt | Kidney concentration of administered compound ([1]; 6 h): 13.0 ± 8.0 nmol/g wet wt | Kidney concentration of administered compound ([1]; 8 h): 8.8 ± 2.9 nmol/g wet wt | Liver concentration of administered compound ([1]; 2 h): 48.3 ± 20.3 nmol/g wet wt | Liver concentration of administered compound ([1]; 4 h): 25.0 ± 3.9 nmol/g wet wt | Liver concentration of administered compound ([1]; 6 h): 19.3 ± 2.0 nmol/g wet wt | Liver concentration of administered compound ([1]; 8 h): 12.3 ± 0.8 nmol/g wet wt | Pancreas concentration of administered compound ([1]; 2 h): 5.8 ± 1.3 nmol/g wet wt | Pancreas concentration of administered compound ([1]; 4 h): 0 ± 0 nmol/g wet wt | Pancreas concentration of administered compound ([1]; 6 h): 0 ± 0 nmol/g wet wt | Pancreas concentration of administered compound ([1]; 8 h): 0 ± 0 nmol/g wet wt | concentration at 2 h ([1]; plasma, 2 h, read-out: Plasma concentration of administered compound): 13.1 ± 2.7 µM | Plasma concentration of administered compound ([1]; plasma, 4 h): 2 ± 0.4 µM | concentration at 6 h ([1]; plasma, 6 h, read-out: Plasma concentration of administered compound): 0 nM | concentration at 8 h ([1]; plasma, 8 h, read-out: Plasma concentration of administered compound): 0 nM | Efficiency (%) (iron clearing efficiency) ([2]; p.o.): 1.0 ± 0.4% | Efficiency (%) (iron clearing efficiency) ([2]; s.c.): 1.1 ± 0.6%

CCOC(=O)[C@@]1(C)CSC(c2ccc(OCCOCCOCCOC)cc2O)=N1 [(S)-4′-(HO)-DADFT-PE EE]
Efficiency (%) (iron clearing efficiency) ([2]; s.c.): 11.4 ± 0.8% | Iron clearing efficiency compared with parent drug (S)-4-(HO)-DADFT [2]: work better than the parent drug

COCCOCCOCCOc1ccc(C2=N[C@@](C)(C(=O)OC(C)C)CS2)c(O)c1 [(S)-4′-(HO)-DADFT-PE iPrE]
Efficiency (%) (iron clearing efficiency) ([2]; p.o.): 9.2 ± 4.4% | Efficiency (%) (iron clearing efficiency) ([2]; s.c.): 25.9 ± 9.2% | Iron clearing efficiency of isopropylester vs ethyl ester ([2]; both administered subcutaneously): significantly more efficient | Iron clearing efficiency compared with parent drug (S)-4-(HO)-DADFT [2]: work better than the parent drug

CC(C)OC(=O)[C@@]1(C)CSC(c2ccc(O)cc2O)=N1 [(S)-4′-(HO)-DADFT-iPrE]
Efficiency (%) (iron clearing efficiency) ([2]; s.c.): 1.98 ± 0.91%
